Earlier results as cited in patent US20030004142A1, “Use of NSAIDs for prevention and treatment of cellular abnormalities of the lung or bronchial pathway” (priority 2001, published 2003).

Tests used:
OPC cell lines [1] = details: all OPC cell lines tested
OPC cell lines [2] = details: all OPC cell lines tested; remark: listed apart in the source

O=C(c1ccccc1)c1ccc2n1CCC2C(=O)O (stereo not shown) [ketorolac, (.+−.)5(benzoyl)-2,3-dihydro-1H-pyrrolizine-1carboxylic acid]
PGE2 production (OPC cell lines [1]): continuously and significantly decreased
IL-6 levels (OPC cell lines [2]): continuously and significantly decreased
IL-8 levels (OPC cell lines [2]): continuously and significantly decreased
OPC growth in vivo (OPC): reduced OPC growth in vivo
